Experiments:
liver cancer = conditions: animal model of liver cancer; cited from earlier work
HCC-E = experiment: Orthotopic hepatoma model, tumor weight in the liver, HCC-E; format: in vivo, nude mouse; conditions: oral everyday, 3 weeks, nude mice
Procedure: (§1) Accordingly, an experiment of therapeutic treatment was performed to examine susceptibility to RAR-α agonists. The cultured liver cancer cells were transplanted in an amount of 1×10^6 cells into the outer left lobes of the livers in nude mice (BALB/cA Jcl-nu, Clea Japan, Inc.), TAC-101 as an RAR-α agonist was orally administered everyday as a 0.5% hydroxypropylmethylcellulose suspension (Shin-Etsu Chemical Co., Ltd.), and then the weights of tumors formed in the livers were measured 3 weeks later to obtain mean inhibition rates. […] Further, it was also observed by two-sided Student's t test that these antitumor effects were statistically significant inhibitory action.

human liver cancer = conditions: phase II study; cited from earlier work
HCC-C = experiment: Orthotopic hepatoma model, tumor weight in the liver, HCC-C; format: in vivo, nude mouse; conditions: oral everyday, 3 weeks, nude mice
Procedure: as §1

HCC-D = experiment: Orthotopic hepatoma model, tumor weight in the liver, HCC-D; format: in vivo, nude mouse; conditions: oral everyday, 3 weeks, nude mice
Procedure: as §1

HCC-E cells = experiment: Survival after spleen inoculation (liver metastasis model), HCC-E; format: in vivo, nude mouse; conditions: oral every day for 4 weeks, nude mice
From the text: (§2) Further, correlation between the cofactor balance and survival advantage was examined by using cancer cell lines for which survival were evaluatable. When cells of the colorectal cancer cell line CAC, having an AIB1/SP110b ratio of 0.08 so as to be dominant in SP110b, and the aforementioned HCC-E cells are inoculated in the nude mouse spleen, dissemination easily occurs in the liver, resulting in formation of a metastatic condition in the liver. After 1×10^6 of CAC or HCC-E cells were transplanted, and TAC-101 was orally administered every day for 4 weeks, the survival time of each model animal was observed. In the CAC model, in which SP110b was dominant, prolongation of the survival time was only 26%, whereas in the HCC-E model, in which the class of the p160 family molecule was dominant, nearly […] longer survival time prolongation of 81% was confirmed. Further, this effect in the HCC-E model was also statistically significant (P<0.001).

[1] = test system: colorectal cancer cell line CAC; experiment: Survival after spleen inoculation (liver metastasis model), CAC; format: in vivo, nude mouse; conditions: oral every day for 4 weeks, nude mice
From the text: as §2

RAR-α = RAR-α transcription activity test (pRARE-SEAP reporter) in hepatocellular carcinoma cells; format: cell-based, human; conditions: for RAR response (T/C %): 24 hours, untreated cells = 100
Procedure: The test for confirming the RAR-α transcription activity was performed as follows.
Hepatocellular carcinoma cells of each type transfected with a reporter plasmid containing an RAR-α binding sequence with the SEAP gene in a downstream region (pRARE-SEAP-TA-vector, Clontech) were treated with an RAR-α agonist, and then the SEAP alkaline phosphatase activity in the culture supernatant was measured. The cultured hepatocellular carcinoma cells were transfected with the RARE reporter plasmid mixed in a transfection reagent prepared by using the culture broth and FuGENE6 solution at a ratio of 100:6 and cultured for 24 hours. The culture broth was replaced with the one containing TAC-101 as an RAR-α agonist, and the cells were cultured for further 24 hours. Then, the culture supernatant was collected, and transcription activity was confirmed by using an alkaline phosphatase activity measurement reagent (SEAP Detection Kit, Clontech).

C[Si](C)(C)c1cc(C(=O)Nc2ccc(C(=O)O)cc2)cc([Si](C)(C)C)c1 [TAC-101, 4-[3,5-Bis(trimethylsilyl)benzamido]benzoic acid]
antitumor activity (in words) (liver cancer): antitumor activity of TAC-101 was observed | Inhibition (%) of tumor growth (tumor weight, mean inhibition rate) (HCC-E): 67% | prevention of tumor progression (human liver cancer): 43% | Inhibition (%) of tumor growth (tumor weight, mean inhibition rate) (HCC-C): 81% | Inhibition (%) of tumor growth (tumor weight, mean inhibition rate) (HCC-D): −3% | therapeutic effect (in words) (HCC-D): no therapeutic effect was observed | Increase of life span (%) (HCC-E cells): 81% | Increase of life span (%) [1]: 26% | RAR response (T/C %) (RAR-α; HCC-A cells, TAC-101 0.3 μM): 142% | RAR response (T/C %) (RAR-α; HCC-A cells, TAC-101 1 μM): 110% | RAR response (T/C %) (RAR-α; HCC-A cells, TAC-101 3 μM): 143% | RAR response (T/C %) (RAR-α; HCC-B cells, TAC-101 0.3 μM): 180% | RAR response (T/C %) (RAR-α; HCC-B cells, TAC-101 1 μM): 188% | RAR response (T/C %) (RAR-α; HCC-B cells, TAC-101 3 μM): 146% | RAR transcription activity induced by TAC-101 (in words) (RAR-α; HCC-C cells): high | RAR response (T/C %) (RAR-α; HCC-C cells, TAC-101 0.3 μM): 342% | RAR response (T/C %) (RAR-α; HCC-C cells, TAC-101 1 μM): 497% | RAR response (T/C %) (RAR-α; HCC-C cells, TAC-101 3 μM): 285% | RAR transcription activity induced by TAC-101 (in words) (RAR-α; HCC-D cells): weak | RAR response (T/C %) (RAR-α; HCC-D cells, TAC-101 0.3 μM): 161% | RAR response (T/C %) (RAR-α; HCC-D cells, TAC-101 1 μM): 161% | RAR response (T/C %) (RAR-α; HCC-D cells, TAC-101 3 μM): 168% | RAR transcription activity induced by TAC-101 (in words) (RAR-α; HCC-E cells): high | RAR response (T/C %) (RAR-α; HCC-E cells, TAC-101 0.3 μM): 476% | RAR response (T/C %) (RAR-α; HCC-E cells, TAC-101 1 μM): 482% | RAR response (T/C %) (RAR-α; HCC-E cells, TAC-101 3 μM): 259%
